{
  "source": "patent US20050089473A1",
  "about": "“Potassium channel mediated delivery of agents through the blood-brain barrier” (Cedars-Sinai Medical Center, priority 2003, published 2005)",
  "key": {"[1]": {"details": "cited from earlier work"}, "[2]": {"biological_target": "T1, soluble guanylyl cyclase (Bos taurus, UniProt P16068+P19687)", "T1 sequence (P16068 1-619)": "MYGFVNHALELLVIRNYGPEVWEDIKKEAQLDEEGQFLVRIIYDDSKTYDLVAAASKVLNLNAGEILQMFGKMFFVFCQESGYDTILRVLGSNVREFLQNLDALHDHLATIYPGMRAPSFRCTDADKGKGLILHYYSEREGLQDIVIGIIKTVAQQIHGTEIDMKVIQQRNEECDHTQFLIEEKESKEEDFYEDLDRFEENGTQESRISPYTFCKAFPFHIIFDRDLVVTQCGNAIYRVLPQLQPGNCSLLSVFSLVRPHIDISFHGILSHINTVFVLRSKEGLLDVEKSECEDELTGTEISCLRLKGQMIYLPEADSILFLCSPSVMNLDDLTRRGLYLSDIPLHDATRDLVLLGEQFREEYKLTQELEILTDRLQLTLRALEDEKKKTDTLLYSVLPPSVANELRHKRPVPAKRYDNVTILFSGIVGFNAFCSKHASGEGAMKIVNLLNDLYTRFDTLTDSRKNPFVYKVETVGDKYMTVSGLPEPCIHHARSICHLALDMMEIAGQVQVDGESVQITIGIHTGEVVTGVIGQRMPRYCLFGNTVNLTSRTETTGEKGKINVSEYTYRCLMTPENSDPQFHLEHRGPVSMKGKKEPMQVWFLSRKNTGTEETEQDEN", "T1 sequence (P19687 1-691)": "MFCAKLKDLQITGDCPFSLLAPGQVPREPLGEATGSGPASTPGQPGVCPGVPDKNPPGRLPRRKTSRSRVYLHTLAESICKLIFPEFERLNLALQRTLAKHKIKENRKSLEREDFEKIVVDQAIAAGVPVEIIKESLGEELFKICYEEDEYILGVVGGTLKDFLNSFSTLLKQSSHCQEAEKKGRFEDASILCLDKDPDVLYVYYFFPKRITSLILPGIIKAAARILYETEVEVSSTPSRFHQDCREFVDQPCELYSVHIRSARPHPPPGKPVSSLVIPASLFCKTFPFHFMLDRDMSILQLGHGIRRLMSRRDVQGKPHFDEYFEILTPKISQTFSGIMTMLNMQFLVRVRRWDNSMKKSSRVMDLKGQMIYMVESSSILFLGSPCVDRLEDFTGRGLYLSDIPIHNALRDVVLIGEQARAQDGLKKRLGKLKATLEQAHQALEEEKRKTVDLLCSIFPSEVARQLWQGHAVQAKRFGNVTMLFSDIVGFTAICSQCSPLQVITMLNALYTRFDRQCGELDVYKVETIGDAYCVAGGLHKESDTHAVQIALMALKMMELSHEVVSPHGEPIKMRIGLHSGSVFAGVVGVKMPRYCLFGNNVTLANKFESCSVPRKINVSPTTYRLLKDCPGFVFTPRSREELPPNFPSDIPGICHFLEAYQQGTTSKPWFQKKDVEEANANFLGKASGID", "details": "cited from earlier work"}, "[3]": {"details": "cited from earlier work", "remark": "listed apart in the source"}, "[4]": {"test_system": "intracranial RG2 tumors", "assay": "Survival study, rats with intracranial RG2 tumors", "assay_type": "in vivo, rat", "experimental": "Wistar rats with implanted intracranial tumors were used to study the effect of MS on increased carboplatin delivery and survival. RG2 cells (1×10^5) were implanted intracranially to form a tumor (2 mm in size) in rats within a week. After a week, rats were given saline, carboplatin (5 mg/kg) or carboplatin after 15 min of MS (30 μg/kg/min for 15 min) infusion through an exteriorized catheter once a day for three consecutive days. The rats were carefully monitored for mortality and clinical signs due to brain tumor growth for 90 days or until death, whichever came first. Brains of dead, moribund or those rats that survived beyond 90 days were removed, frozen and cryosectioned for histological evaluation, in order to compare tumor volumes between treated and untreated groups. Kaplan-Meier analysis was performed to determine the statistical significance of the results."}, "[5]": {"test_system": "intracerebral RG2 tumors", "assay": "In vivo BTB permeability (Ki by quantitative autoradiography) in RG2 tumor-bearing rats", "parameters": "species or system rat", "details": "data not shown"}, "[6]": {"test_system": "KATP channels", "assay": "Membrane potential assay of KATP channel activity", "assay_type": "cell-based, human", "details": "RBEC, HBMVEC, RG2 and GBM cells", "experimental": "Functional activities of putative KATP channels in HBMVEC and GBM cells were measured by detecting changes in voltage across the cell membrane as described earlier (Ningarsj, N. S., Rao, M., Hashizume, K., Asotra, K., and Black, K. L. Regulation of blood-brain tumor barrier permeability by calcium-activated potassium channels J. Pharmacol. Exp. Ther., 301:838-851, 2002). A membrane potential assay kit (Molecular Devices, Sunnyvale, Calif.) provided a fast, simple and consistent mix-and-read procedure. In brief, HBMVEC and GBM cells obtained from cell passages 2-5 was suspended in 5 ml of growth medium. In two separate experiments, the cell density was adjusted to 1×10^3 cells/well and coated in sterile, clear bottom, blank 96-well plates (Corning, Inc., Acton, Mass.), pre-coated with poly L-Lysine, and allowed to achieve a monolayer within 24 h. The monolayer cells were incubated with the membrane potential assay kit reagents for 30 min and read directly by FLEXstation. The anionic pchemiometric dye that traverses between cells and the extracellular solution in a membrane potential-dependent manner serves as an indicator of vasomodulator-induced voltage changes across the cell membrane. […] Additionally, the effects of the optimum dose (10 μM) of MS and glibenclamide (100 nM) on KATP channels activity in HBMVEC and GBM cells were determined."}, "[7]": {"test_system": "intracranial human glial tumors", "assay": "Survival study, nude mice with intracranial human glial tumors", "assay_type": "in vivo, mouse", "details": "i.v., three consecutive doses for three days", "experimental": "GBM-xenograft rat and mouse models were developed by intracranially implanting primary GBM cells isolated from patient brain tumor tissue. […] To investigate whether MS administration by intracarotid (i.c.) and intravenous (i.v.) routes, increases BTB permeability to different tracers, and enhances delivery to brain tumor, permeability studies were performed.\nNude mice were intracranially implanted with cells. The tumor was allowed to grow for 7 days before treatment was initiated."}},
  "note": "Where “and” joins values, the source holds several entries; their conditions need not be identical. Equal entries are not always repeated. Where two headings read alike, the source gives them in different places. Ends that are not written are not given here.",
  "data": [
    {"compound": "CC(=O)NC(C(=O)O)C(C)(C)SN=O", "note": "(racemic) [SNAP, S-nitroso-N-acetyl-D,L-penicillamine]", "values": [
      {"measurement": "Half-life (t1/2) of NO donor", "setting": "[1]", "value": "1980 to 2460", "unit": "min"}
    ]},
    {"compound": "[C-]#[O+]", "note": "[CO, Carbon monoxide]", "values": [
      {"measurement": "Increase in soluble guanylyl cyclase activity", "setting": "[2]; in the presence of YC-1", "value": "> 100", "unit": "fold"}
    ]},
    {"compound": "CCN(CC)N(O)N=O.CCNCC", "note": "[DEA/NO, N-ethylethanamine: 1,1-diethyl-2-hydroxy-2-nitrosohydrazine (1:1)]", "values": [
      {"measurement": "Half-life (t1/2) of NO donor", "setting": "[1]", "value": "2 to 4", "unit": "min"}
    ]},
    {"compound": "NCCN(CCN)N(O)N=O", "note": "[DETA/NO, 2,2′-hydroxynitrosohydrazino]bis-ethanamine]", "values": [
      {"measurement": "Half-life (t1/2) of NO donor", "setting": "[1]", "value": "about 20 hours"}
    ]},
    {"compound": "[N]=O", "note": "[NO, Nitric oxide]", "values": [
      {"measurement": "Increase of vMax of sGC", "setting": "[2]", "value": "100-200 fold"}
    ]},
    {"compound": "O=c1[nH]c2cc(C(F)(F)F)ccc2n1-c1cc(C(F)(F)F)ccc1O", "note": "[NS-1619, 1,3-dihydro-1-[2-hydroxy-5-(trifluoromethyl)phenyl]-5-(trifluoromethyl)-2H-benzimidazol-2-one]", "values": [
      {"measurement": "Effect on CBF in tumor and normal brain", "setting": "[3]; i.c. infusion of low doses", "value": "did not alter CBF"}
    ]},
    {"compound": "CCCN(CCCN)N(O)N=O", "note": "[PAPA/NO, 3-(2-hydroxy-2-nitroso-1-propylhydrazino)-1-propanamine]", "values": [
      {"measurement": "Half-life (t1/2) of NO donor", "setting": "[1]", "value": "about 15 minutes"}
    ]},
    {"compound": "NCCCNCCCCN(CCCN)N(O)N=O", "note": "[SPER/NO, N-(4-[1-(3-aminopropyl)-2-hydroxy-2-nitroso-hydrazino]-butyl)-1,3-propanediamine]", "values": [
      {"measurement": "Half-life (t1/2) of NO donor", "setting": "[1]", "value": "34 to 40", "unit": "min"}
    ]},
    {"compound": "N.N.O=C([O-])C1(C(=O)[O-])CCC1.[Pt+2]", "note": "[carboplatin]", "values": [
      {"measurement": "Mean survival", "setting": "[4]; RG2 tumor rats, i.c. once a day for three days, carboplatin 5 mg/kg, MS 30 μg/kg/min for 15 min", "value": "55.46 ± 5.71", "unit": "days"},
      {"measurement": "Mean tumor size", "setting": "[4]; coronal brain sections", "value": "5.30±1.9 mm^2 and 5.30±1.2 mm^2"}
    ]},
    {"compound": "COc1ccc(Cl)cc1C(=O)NCCc1ccc(S(=O)(=O)NC(=O)NC2CCCCC2)cc1", "note": "[glibenclamide]", "values": [
      {"measurement": "BBB or BTB permeability, glibenclamide infused alone or prior to MS", "setting": "[5]", "value": "did not affect BBB or BTB permeability"},
      {"measurement": "Membrane potential dye fluorescence intensity", "setting": "[6]", "value": "reversed"}
    ]},
    {"compound": "Cn1nnc2c(C(N)=O)ncn2c1=O", "note": "[temodor]", "values": [
      {"measurement": "Mean survival", "setting": "[7]", "value": "25.5 ± 6.3", "unit": "days"}
    ]},
    {"compound": "RPPGFSPFR [BK]", "values": [
      {"measurement": "Effect on CBF in tumor and normal brain", "setting": "[3]; rat, in vivo", "value": "did not alter CBF"}
    ]}
  ]
}
